# Measurements from publication PMC3340335, “Differential Scanning Fluorometry Signatures as Indicators of Enzyme Inhibitor Mode of Action: Case Study of Glutathione S-Transferase” (PLoS ONE, 2012).
# Where two headings read alike, the source gives them in different places.
# What was measured:
# SjGST [1] = target: T1, SjGST (Schistosoma japonicum, UniProt P08515); experiment: SjGST luciferase-coupled luminescence enzymatic assay (PBI 1155 substrate, 100 µM GSH); format: biochemical; details: for inhibition at 58 µM: read-out: % Inhibition at 58 μM against SjGST
# T1 construct: purchased GenScript (Piscataway, NJ)
# T1 sequence (P08515 whole entry): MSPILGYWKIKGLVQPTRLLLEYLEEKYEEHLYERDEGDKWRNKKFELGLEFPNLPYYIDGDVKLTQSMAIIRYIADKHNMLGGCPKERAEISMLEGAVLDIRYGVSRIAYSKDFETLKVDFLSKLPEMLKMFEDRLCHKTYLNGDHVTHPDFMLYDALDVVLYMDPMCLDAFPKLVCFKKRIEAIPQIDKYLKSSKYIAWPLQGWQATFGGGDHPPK
# Protocol: Compound inhibitory activities were evaluated using a previously reported GST enzymatic assay. Three µl of reagents (5 nM final concentration of SjGST (or buffer serving as a no-enzyme control) plus 100 µM final concentration of GSH) were dispensed into 1536-well Greiner white solid-bottom assay plates. Compounds (23 nL) were transferred via Kalypsys pintool equipped with 1,536-pin array. The plates were incubated at room temperature for 15 min before the addition of 20 µM substrate PBI 1155 to initiate the reaction. The plates were centrifuged at 1000 rpm for 15 s and incubated at room temperature for 40 min before the addition 4 µl luciferin detection reagent followed by another 15-s centrifugation at 1000 rpm and 15-min incubation. The plates were then read on ViewLux high-throughput CCD imager (PerkinElmer, Waltham, MA) with a clear emission filter and under standard luminescence settings. Percent inhibition was calculated based on the enzyme-containing and no-enzyme controls using Excel and GraphPad Prism 4.
# SjGST [2] = target: T1, SjGST; experiment: biochemical; format: binding; details: for ΔTm at 200 µM / Difference in thermal shift between GSH-present (2 mM) and GSH-absent curves at top compound concentration: 200 µM compound; for ΔTm at 200 µM / Difference in thermal shift between GSH-present (2 mM) and GSH-absent curves across compound concentrations / Difference in thermal shift between GSH-present (2 mM) and GSH-absent curves at top compound concentration: 2 mM GSH versus no GSH; for ΔTm at 200 µM: read-out: Difference in thermal shift between GSH-present (2 mM) and GSH-absent curves at top compound concentration; for Thermal shift (ΔTm versus vehicle control) of SjGST: absence of GSH, top compound concentration, 200 µM, 1 µM SjGST; for Difference in thermal shift between GSH-present (2 mM) and GSH-absent curves across compound concentrations: across all concentrations up to 200 µM
# Protocol: Compounds were diluted (1∶2, 7-points) in DMSO row-wise down to 10 µM in a 96-well polypropylene round bottom mother plate, with DMSO alone in the first column of each plate. […] The PCR plates were centrifuged at 1000 rpm for 10 s to ensure good mixing, and sealed with Optical-Quality Sealing Tape (Bio-Rad). […] The mid temperature of the protein thermal melt profiles, Tm, was determined using EXCEL-based custom calculation software available at (ftp://ftp.sgc.ox.ac.uk/pub/biophysics), and fitting of the data to the Boltzmann equation was performed using GraphPad Prism 4. The differences in Tm between vehicle control and compound-containing samples were calculated as thermal shift.
# hGST A1-1 = target: T2, hGST A1-1 (Homo sapiens, UniProt P08263); experiment: Thermal shift assay (DSF) with hGST A1-1; format: binding; details: concentration-response, Fig. 7A-C
# T2 construct: purchased Oxford Biomedical Research (Oxford, MI)
# T2 sequence (P08263 1-222): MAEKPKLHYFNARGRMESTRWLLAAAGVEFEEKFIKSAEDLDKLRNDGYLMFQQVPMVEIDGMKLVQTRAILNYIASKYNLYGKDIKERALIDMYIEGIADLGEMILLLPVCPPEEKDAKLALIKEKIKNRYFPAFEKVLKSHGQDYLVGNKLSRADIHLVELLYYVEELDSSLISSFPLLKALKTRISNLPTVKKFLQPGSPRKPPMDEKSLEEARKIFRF
# Protocol: (§1) Compounds were diluted (1∶2, 7-points) in DMSO row-wise down to 10 µM in a 96-well polypropylene round bottom mother plate, with DMSO alone in the first column of each plate. […] The PCR plates were centrifuged at 1000 rpm for 10 s to ensure good mixing, and sealed with Optical-Quality Sealing Tape (Bio-Rad). The plates were subsequently heated approximately 2 min after sample mixing, on an iQ5 thermal cycler at intervals of 1°C from 20 to 95°C, with a ramping rate of 6°C min^−1. The set-up of the filter configurations was customized to accommodate the optimal excitation and emission wavelengths for SYPRO Orange (Ex: 490/Em: 575 nm). The mid temperature of the protein thermal melt profiles, Tm, was determined using EXCEL-based custom calculation software available at (ftp://ftp.sgc.ox.ac.uk/pub/biophysics), and fitting of the data to the Boltzmann equation was performed using GraphPad Prism 4. The differences in Tm between vehicle control and compound-containing samples were calculated as thermal shift.
# (§2) The study was subsequently extended to human GST isozymes by testing one representative compound from each category against hGST A1 and M1 (hGST P1 was not pursued due to the protein's lack of clear melt transition, data not shown).
# hGST M1-1 = target: T3, hGST M1-1 (Homo sapiens, UniProt P09488); experiment: Thermal shift assay (DSF) with hGST M1-1; format: binding; details: concentration-response, Fig. 7D-F
# T3 construct: purchased Oxford Biomedical Research (Oxford, MI)
# T3 sequence (P09488 1-218): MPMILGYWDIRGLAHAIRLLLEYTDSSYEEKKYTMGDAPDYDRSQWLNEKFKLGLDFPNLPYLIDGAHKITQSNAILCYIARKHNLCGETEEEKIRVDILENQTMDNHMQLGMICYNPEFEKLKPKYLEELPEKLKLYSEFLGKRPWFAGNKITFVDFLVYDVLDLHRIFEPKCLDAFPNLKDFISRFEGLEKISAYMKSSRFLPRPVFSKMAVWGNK
# Protocol: as §1, §2
# [3] = 5 nM SjGST, 100 µM GSH, 20 µM PBI 1155, read-out: IC50 against SjGST
smiles,measurement,setting,value
NC(CCC(=O)NC(CSc1ccc(C(=O)OCCOCCOCCOCCOC(=O)c2ccc(SCC(NC(=O)CCC(N)C(=O)O)C(=O)NCC(=O)O)c([N+](=O)[O-])c2)cc1[N+](=O)[O-])C(=O)NCC(=O)O)C(=O)O (stereo not shown) [Bis-(NB-GS)],IC50,SjGST [1]; [3],670 nM
same,Fold greater inhibitory potency of Bis-(NB-GS) versus NBD-GS,"SjGST [1]; ratio of IC50 values, 0.67 µM versus 2.3 µM",over 3 fold
same,ΔTm at 200 µM,SjGST [2],1.2 °C
same,Thermal shift (ΔTm versus vehicle control) of SjGST,SjGST [2],11.1 °C
"C=C(CC)C(=O)c1ccc(OCC(=O)O)c(Cl)c1Cl [Ethacrynic acid, ethacrynic acid]",IC50,SjGST [1]; [3],140 nM
same,ΔTm at 200 µM,SjGST [2],11.5 °C
same,Thermal shift (ΔTm versus vehicle control) of SjGST,SjGST [2],1.8 °C
same,Glutathione-dependency trend of thermal shift curves (with versus without 2 mM GSH),hGST A1-1,diverging trend
same,Glutathione-dependency trend of thermal shift curves (with versus without 2 mM GSH),hGST M1-1,diverging trend
"N[C@@H](CCC(=O)N[C@@H](CS)C(=O)NCC(=O)O)C(=O)O [GSH, γ-Glu-Cys-Gly]",ΔTm at 2000 µM,"SjGST [2]; 2 mM GSH, at low compound concentrations, read-out: Enhancement in thermal shift baseline due to GSH",~4 °C
"O=c1c(O)c(-c2cc(O)c(O)c(O)c2)oc2cc(O)cc(O)c12 [Myricetin, myricetin]",IC50,SjGST [1],6600 nM
same,Thermal shift (ΔTm versus vehicle control) of SjGST,SjGST [2],over 3 °C
same,Difference in thermal shift between GSH-present (2 mM) and GSH-absent curves across compound concentrations,SjGST [2],approximately 4 °C
O=[N+]([O-])c1ccc(SCCCCCCCCO)c2nonc12 [NBD-8-OH],IC50,SjGST [1]; [3],660 nM
same,ΔTm at 200 µM,SjGST [2],10.5 °C
same,Thermal shift (ΔTm versus vehicle control) of SjGST,SjGST [2],failed to display any significant thermal stabilization effect
NC(CCC(=O)NC(CSc1ccc([N+](=O)[O-])c2nonc12)C(=O)NCC(=O)O)C(=O)O (stereo not shown) [NBD-GS],IC50,SjGST [1]; [3],2300 nM
same,ΔTm at 200 µM,SjGST [2],4 °C
same,Thermal shift (ΔTm versus vehicle control) of SjGST,SjGST [2],5.9 °C
"O=c1c(O)c(-c2ccc(O)c(O)c2)oc2cc(O)cc(O)c12 [Quercetin, quercetin]",IC50,SjGST [1]; [3],5000 nM
same,Thermal shift (ΔTm versus vehicle control) of SjGST,SjGST [2],over 3 °C
same,Difference in thermal shift between GSH-present (2 mM) and GSH-absent curves across compound concentrations,SjGST [2],approximately 4 °C
same,Glutathione-dependency trend of thermal shift curves (with versus without 2 mM GSH),hGST A1-1,parallel trend
same,Glutathione-dependency trend of thermal shift curves (with versus without 2 mM GSH),hGST M1-1,parallel trend
"CCCCSC[C@H](NC(=O)CC[C@H](N)C(=O)O)C(=O)NCC(=O)O [S-butyl GSH, S-butyl glutathione]",inhibition at 58 µM,SjGST [1],35%
same,Difference in thermal shift between GSH-present (2 mM) and GSH-absent curves at top compound concentration,SjGST [2],1.8 °C
"CCCCCCSC[C@H](NC(=O)CC[C@H](N)C(=O)O)C(=O)NCC(=O)O [S-hexyl GSH, S-hexyl glutathione]",inhibition at 58 µM,SjGST [1],58%
same,Difference in thermal shift between GSH-present (2 mM) and GSH-absent curves at top compound concentration,SjGST [2],1.8 °C
"CSC[C@H](NC(=O)CC[C@H](N)C(=O)O)C(=O)NCC(=O)O [S-methyl GSH, S-methyl glutathione]",Inhibition of SjGST at concentrations up to 200 µM,SjGST [1]; tested up to 200 µM,did not show detectable inhibition
same,Thermal shift (ΔTm versus vehicle control) of SjGST,SjGST [2],< 2 °C
"CCCCCCCCSC[C@H](NC(=O)CC[C@H](N)C(=O)O)C(=O)NCC(=O)O [S-octyl GSH, S-octyl glutathione]",inhibition at 58 µM,SjGST [1],83%
same,Difference in thermal shift between GSH-present (2 mM) and GSH-absent curves at top compound concentration,SjGST [2],0.45 °C
same,Glutathione-dependency trend of thermal shift curves (with versus without 2 mM GSH),hGST A1-1,converging trend
same,Glutathione-dependency trend of thermal shift curves (with versus without 2 mM GSH),hGST M1-1,converging trend
